Measurements as given in US8969584B2, “PIM kinase inhibitors and preparation methods and use in medicinal manufacture thereof” (Jikai Biosciences, Inc., priority 2011, dated 2015).

These compounds were tested against T1, PIM-1 kinase (Homo sapiens, UniProt P11309) (assay: PIM Kinase Activity Assay-IMAP Fluorescence Polarization Assay (PIM-1)). Details: 3 μM concentration.
T1 construct: purchased Millipore 14-573
Type: biochemical
Experimental: In the present invention, the PIM activities of the compounds were tested by BioDuro (Building E, No. 29 Life Science Park Road, Changping District, Beijing, 102206, P.R. China). The method used for testing is PIM Kinase Activity Assay-IMAP Fluorescence Polarization Assay PIM Kinase Activity Assay-IMAP Fluorescence Polarization Assay 1. Principle PIM kinases are serine/threonine protein kinases, and they can phosphorylate 5-FAM labeled small peptide substrates. Fluorescence polarization is less for non-phosphorylated substrates since that can not bind to the binder (metal binding nanoparticles). On the other hand, fluorescence polarization is more for phosphorylated substrates since that can bind to the binder. The level of 5-FAM labeled small peptide substrates phosphorylation reflects the activities of PIM kinase. By measuring their ability of inhibiting PIM kinase of the compounds of the present invention, their activities of inhibiting PIM kinases can be determined 2. Instrument EnVision (PerkinElmer, Waltham, Mass.) 3. Reagents and 384 well plates PIM1 (Millipore Cat. #14-573) (Millipore Corporation, Billerica, Mass.) PIM2 (Millipore Cat. #14-607) (Millipore Corporation, Billerica, Mass.) 5-FAM labeled peptide (5-FAM-RSRHSSYPAGT, AnaSpec Cat. #63801) (AnaSpec Inc., Fremont, Calif.) IMAP FP Screening Express kit (IMAP FP Screening kit) (Molecular Devices Cat. #R8127) (Molecular Devices, Sunnyvale, Calif.) IMAP Progressive binding reagent IMAP Progressive binding buffer A (5×) IMAP Progressive binding buffer B (5×) 384-well black plate (Corning Cat. #3573) (Corning, Midland Mich.) 4. Assay Buffer
a) 10 mM compound stock solution is diluted to appropriate concentration with 100% DMSO, then diluted 10 fold to targeted concentration with test butter to keep DMSO concentration at 10%
1 ul of compound solution and 4 ul of enzyme (PIM-1 final concentration 0.025 nM, PIM-2 concentration 3 nM) is incubated at 23° C. for 15 min, 2.5 ul ATP (for PIM-1 and PIM-2, the final ATP concentrations are 30 uM and 5 uM respectively) 2.5 ul 5-FAM labeled peptide (final concentration 100 nM) was added to start the reaction. The reaction is run at 23° C. for 60 min DMSO is used in place of compound stock solution as maximum reference and assay buffer is used in place of enzyme as minimum reference. c) add 30 ul IMAP binding reagent (containing 75% IMAP Buffer A, 25% IMAP Buffer B, 1/600 dilution of beads) to stop the reaction, incubated at room temperature for 60 min d) Measure fluorescence polarization, excitation wavelength: 485 nm, emission wavelength 530 nm. 6. Data process IC50 values were calculated using Graphpad Prism®.

T1 sequence (P11309 whole entry): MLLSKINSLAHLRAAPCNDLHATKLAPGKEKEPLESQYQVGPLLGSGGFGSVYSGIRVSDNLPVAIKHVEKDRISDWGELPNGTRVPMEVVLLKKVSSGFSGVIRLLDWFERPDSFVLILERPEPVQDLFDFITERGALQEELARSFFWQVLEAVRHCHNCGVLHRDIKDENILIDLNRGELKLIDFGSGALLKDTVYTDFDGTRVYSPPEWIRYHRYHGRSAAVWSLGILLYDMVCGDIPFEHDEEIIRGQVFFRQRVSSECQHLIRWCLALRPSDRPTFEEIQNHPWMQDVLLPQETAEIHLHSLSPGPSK

Inhibition at 3 µM, 20 to 50%:
CC(C)(C)OC(=O)N1CCC(c2nc(C(=O)Nc3cnsc3N3CCOCC3)cs2)CC1 [Compound 25, tert-butyl 4-(4-((5-morpholinoisothiazol-4-yl)carbamoyl)thiazol-2-yl)piperidine-1-carboxylate]
O=C(Nc1cnsc1N1CCOCC1)c1csc(C2CCNCC2)n1 [Compound 26, N-(5-morpholinoisothiazol-4-yl)-2-(piperidin-4-yl)thiazole-4-carboxamide]
O=C(Nc1cnsc1N1CCOCC1)c1csc(C2COc3ccccc3O2)n1 (stereo not shown) [Compound 28, 2-(2,3-dihydrobenzo[b][1,4]dioxin-2-yl)-N-(5-morpholinoisothiazol-4-yl)thiazole-4-carboxamide]
O=C(Nc1cnsc1N1CCNCC1)c1csc(N2CCOCC2)n1 [Compound 36, 2-morpholino-N-(5-(piperazin-1-yl)isothiazol-4-yl)thiazole-4-carboxamide]
CC(=O)Nc1nc(C(=O)Nc2cnsc2N2CCNCC2)cs1 [Compound 39, 2-acetamido-N-(5-(piperazin-1-yl)isothiazol-4-yl)thiazole-4-carboxamide]
O=C(Nc1cnsc1N1CCNCC1)c1csc(C2COc3ccccc3O2)n1 (stereo not shown) [Compound 40, 2-(2,3-dihydrobenzo[b][1,4]dioxin-2-yl)-N-(5-(piperazin-1-yl)isothiazol-4-yl)thiazole-4-carboxamide]
Cc1cc(C(=O)Nc2cnsc2N2CCNCC2)nn1-c1ccccc1F [Compound 41, 1-(2-fluorophenyl)-5-methyl-N-(5-(piperazin-1-yl)isothiazol-4-yl)-1H-pyrazole-3-carboxamide]
O=C(Nc1cnsc1N1CCNCC1)c1cc(-c2ccccc2F)n[nH]1 [Compound 42, 3-(2-fluorophenyl)-N-(5-(piperazin-1-yl)isothiazol-4-yl)-1H-pyrazole-5-carboxamide]
O=C(Nc1cnsc1N1CCNCC1)c1coc(-c2ccccc2)n1 [Compound 43, 2-phenyl-N-(5-(piperazin-1-yl)isothiazol-4-yl)oxazole-4-carboxamide]
O=C(Nc1cnsc1N1CCc2c(O)cccc2C1)c1cccc(-c2c(F)cccc2F)n1 [Compound 52, 6-(2,6-difluorophenyl)-N-(5-(5-hydroxy-3,4-dihydroisoquinolin-2(1H)-yl)isothiazol-4-yl)picolinamide]
